Laboratory results from patent publication US9958451B2, “Near-infrared fluorescent dyes with large stokes shifts” (Portland State University, priority 2011, dated 2018).
Values joined by “and” are separate entries in the source; they are usually repeats but may differ in a detail not shown here. Identical values can stand only once. Like-named read-outs stand apart in the source and are kept apart here. Marks after values point to notes of the source that are not given here. Each block holds one molecule with its values, some of them ahead of it.

Columns and labels:
[1] = UV-visible absorbance spectroscopy, 15 μM in 90% aqueous, 10% DMSO; assay type: physicochemical; conditions: for Red shift of absorption spectra from 3-1 transposition versus known regiochemistry: depending on the ionization state
Procedure: Compounds 21 and 7 were characterized by UV-visible spectroscopy (FIG. 15). Absorbance was measured using 15 μM solutions of each compound in a solution that was 90% aqueous, 10% DMSO. The peaks at 600 nm (light dashed line) and 675 nm (light solid line) represent the dianions of compounds 21 and 7, respectively, in NaOH (pH 12). The peaks at 590 nm (heavy dashed line) and 650 nm (heavy solid line) represent a mix of mono- and dianions of compound 21 at pH 7.4 and predominantly monoanions of compound 7 at pH 9, respectively.
Compounds 22 and 8 were characterized by UV-visible spectroscopy (FIG. 16). Absorbance was measured using 15 μM solutions of each compound in a solution that was 90% aqueous, 10% DMSO. The peaks at 610 nm (light dashed line) and 685 nm (light solid line) represent the anions of compounds 22 and 8, respectively, in NaOH (pH 12). The peaks at 605 nm (heavy dashed line) and 805 nm (heavy solid line) represent the neutral forms of compounds 22 and 8 at pH 7.4, respectively.
Compounds 20a and 15a were characterized by UV-visible spectroscopy (FIG. 17). Absorbance was measured using 15 μM solutions of each compound in a solution that was 90% aqueous, 10% DMSO. The peaks at 545 nm (light dashed line) and 595 nm (light solid line) represent the respective anions, compounds 20c and 15h, in NaOH (pH 12).
Compound 15b (free amino) was characterized by UV-visible spectroscopy (FIG. 18), and compared to C.SNARF-5 (literature, SNARF=seminaphthorhodafluor). Absorbance was measured using a 15 μM solution of compound 15b in a solution that was 90% aqueous, 10% DMSO. The peak at 535 nm (heavy line) represents the predominantly phenolic form of 15b at pH 6. The peak at 615 nm (light line) represents the phenoxide of compound 15b at in NaOH (pH12). In comparison, C.SNARF-5 produces a peak at 550 nm (anionic form) and a peak at 485 nm (neutral form) (Whitaker et al., Anal. Biochem. 1991, 194, 330-344).
Absorbance was measured using 15 μM solutions of compound 15d in a solution that was 90% aqueous, 10% DMSO. The peak at 570 nm (heavy line) represents the predominantly neutral form of 15d at pH 6. The peak at 630 nm (light line) represents the phenoxide of compound 15d in NaOH (pH 12).
Compounds 20b and 15g were characterized by UV-visible spectroscopy (FIG. 20). Absorbance was measured using 15 μM solutions of each compound in a solution that was 90% aqueous, 10% DMSO. The peaks at 540 nm (dashed line) and 570 nm (solid line) represent the cations of compounds 20b and 15g, respectively, at pH 7.4.

[2] = Fluorescence emission spectra, 15 μM in 90% aqueous, 10% DMSO; assay type: physicochemical; conditions: for Red-shifted emission from 3-1 transposition versus known regiochemistry: longest wavelength-emitting species
Procedure: Compounds 21 and 7 also were characterized by their fluorescence emission spectra. Fluorescence was measured using 15 μM solutions of each compound in a solution that was 90% aqueous, 10% DMSO. For compound 21, the longest wavelength emission observed from the dianions occurred near 680 nm at pH 9. For compound 7 (transposed), the longest wavelength emission observed from the monoanion occurred near 800 nm at pH 9.
Compounds 22 and 8 also were characterized by their fluorescence emission spectra. Fluorescence was measured using 15 μM solutions of each compound in a solution that was 90% aqueous, 10% DMSO For compound 22, the longest wavelength emission observed from the anion occurred near 690 nm at pH 9. […] Given the greater than 800 nm absorbance peak and the typically large Stokes shifts observed in this class of compounds, it is likely that the emission was beyond the working range of the instrument (>850 nm).
Compounds 20 and 15a also were characterized by their fluorescence emission spectra. Fluorescence was measured using 15 μM solutions of each compound in a solution that was 90% aqueous, 10% DMSO. For compound 20a, the longest wavelength emission observed from its corresponding anion, compound 20c, occurred near 640 nm in NaOH (pH 12). For compound 15a (transposed), the longest wavelength emission observed from the corresponding anion, compound 15h, occurred near 760 nm in NaOH.
Compound 15b also was characterized by its fluorescence emission spectrum and compared to C.SNARF-5. Fluorescence was measured using a 15 μM solution of compound 15b in a solution that was 90% aqueous, 10% DMSO. For C.SNARF-5, the longest wavelength emission observed from the anion occurred near 632 nm (Whitaker et al., Anal. Biochem. 1991, 194, 330-344). For compound 15b (transposed), the longest wavelength emission observed from the phenoxide occurred near 770 nm.
Fluorescence was measured using a 15 μM solution of compound 15d in a solution that was 90% aqueous, 10% DMSO. […] For compound 15d (transposed), the longest wavelength emission observed from the phenoxide occurred near 780 nm (NaOH, pH 12).
Compounds 20b and 15g also were characterized by their fluorescence emission spectra. Fluorescence was measured using 15 μM solutions of each compound in a solution that was 90% aqueous, 10% DMSO. For compound 20b, the longest wavelength emission observed from the cation occurred near 640 nm at pH 7.4. For compound 15g (transposed), the longest wavelength emission observed from the cation occurred near 770 nm at pH 7.4.

[3] = Quantum yield in 10:90 DMSO:aqueous solutions; assay type: physicochemical
Procedure: The quantum yield of yellow-orange emitting 16a was 0.4649, 40 times greater than the corresponding neutral compound 15a. It was slightly higher than the yellow-green emitting neutral compound 20a, and >2 times higher than orange-red emitting anion 20c. The compounds (7.5 μM) were analyzed in 10:90 DMSO:aqueous solutions. Fluorescence emission was readily visible in a darkened room when the solutions were excited from below with 3-watt megaMAX 505 nm ALS system. The emission-enhancing properties afforded through the combination of the 3-1 transposition and methylation is in contrast to previously reported methyl ethers of seminaphthofluorescein compounds.

[4] = Absorbance and fluorescence in methanol; assay type: physicochemical
Procedure: Absorbance and fluorescence of compounds 22 and 8 also were measured in methanol. […] Thus, placement of the hydroxyl group proximal to the xanthene internal oxygen in compound 8 produced a bathochromic shift of 103 nm in the absorption spectrum. The transposition also imparted a corresponding shift in the excitation spectrum, and a large bathochromic shift of 128 nm in the fluorescence emission. Importantly, compound 8 absorbs and emits in the near-infrared with absorption and emission maxima of 701 nm and 816 nm, respectively.
Absorbance and fluorescence of compounds 20a and 15a also were measured in methanol. […] Thus, placement of the hydroxyl group proximal to the xanthene internal oxygen in compound 15a produced a bathochromic shift of 15 nm in the absorbance spectrum. The transposition also imparted a corresponding shift in the excitation spectrum, and a large bathochromic shift of 32 nm in the fluorescence emission.

[5] = Effect of pH / ionization on spectra; assay type: physicochemical
Description: There are through-space polar interactions between R^18 and the internal bridge oxygen in compounds according to general formulas III, IX, and X. The field effect is further enhanced in the case of symmetric compounds, such as those according to general formula IV when R^19 is oxygen. A unique intramolecular hydrogen-bonding network also is present in such compounds, e.g., compound 8 (FIG. 25). This network produces enhanced negative charge density on the ionizable oxygen atoms, thereby promoting a relatively large bathochromic shift. […] The hydrogen bonding can be seen in compounds such as compound 8 by ^1H NMR spectroscopy. A redistribution of the electronic density around the hydrogen atom occurs upon hydrogen bond formation between the hydroxyl proton, the carbonyl, and the central oxygen of compound 8. […] Evidence of hydrogen bonding was also seen in compound 15a, but to a lesser degree. In compound 15a, the total hydrogen bond distance O—H—O between the hydroxyl at the R^18 position and the xanthene central oxygen is 2.95 Å, which falls in range of common hydrogen bonds.
Known seminaphthorhodafluors display long wavelength absorption at high pH; however, the free amino compound in this series respond to low pH with increased long wavelength absorption.

[6] = Spectral properties of rhodamine bis-boronic acids and precursors in DMSO:buffer; assay type: physicochemical; design: Brightness: scale not given here; conditions: for Quenching of emission (PET) of the free boronic acid: DMSO buffer 1:9
Procedure: Characterization: The spectral properties of compounds 50-53 were determined. Absorption and fluorescence spectra of solutions of the rhodamine bis-boronic acids 51 and 53, and their respective precursors 50 and 52, are shown in FIGS. 27A-C (in DMSO:buffer 1:9) and 27D-F (DMSO:buffer 1:1). […] Excitation and emission spectra were normalized to their absorbance at the excitation wavelength, and are proportional to quantum yield.

[7] = Saccharide sensing, response to ribose; conditions: DMSO:buffer 1:1, entire concentration range
Procedure: (§1) Solvents including MeCN, MeOH, EtOH, DMSO and buffer were initially screened for sugar sensing. […] DMSO mixtures were chosen for further studies.
(§2) The final pH 7.4 phosphate buffer concentration was 12.5 mM.

[8] = Saccharide sensing, response to fructose
Procedure: as §1, §2

[9] = 10 mM HEPES, pH 7.5, 15% (v/v) EtOH, Leytus et al., cited from earlier work
[10] = NaOH (pH 12), anionic/phenoxide form, 90% aqueous 10% DMSO
[11] = DMSO:buffer 1:1, pH 7.4 phosphate buffer 12.5 mM
[12] = DMSO:buffer 1:9, pH 7.4 phosphate buffer 12.5 mM

SMILES: COC(=O)c1ccccc1-c1c2ccc(=O)cc-2oc2c1ccc1cccc(OC)c12 [Compound 16a, methyl 2-(1-methoxy-10-oxo-10H-benzo[c]xanthen-7-yl)benzoate]
Quantum yield ([3]; 7.5 μM, 10:90 DMSO:aqueous): 0.4649 | Quantum yield relative to anion 20c ([3]; 7.5 μM, 10:90 DMSO:aqueous): > 2 times | Quantum yield relative to neutral compound 15a ([3]; 7.5 μM, 10:90 DMSO:aqueous): 40 times

SMILES: O=C1OC2(c3ccccc31)c1ccc3cccc(O)c3c1Oc1c2ccc2cccc(O)c12 [Compound 7]
Red shift of absorption spectra from 3-1 transposition versus known regiochemistry ([1]; 90% aqueous 10% DMSO): 60-75 nm | Absorbance peak [1, 10]: 675 nm | Absorbance peak ([1]; pH 9, predominantly monoanions): 650 nm | Stokes shift [2]: about 150 nm | Longest wavelength emission ([2]; NaOH (pH 12), anion/phenoxide): too weak to be detected or, more likely, beyond the working range of the instrument | Red-shifted emission from 3-1 transposition versus known regiochemistry [2]: about 120 nm | Longest wavelength emission ([2]; pH 9): ~800 nm | Form below physiological pH of 7.4 ([5]; 1:9 DMSO:buffer): colorless lactone

SMILES: O=C(O)c1ccccc1-c1c2ccc3cc(NCc4ccccc4B(O)O)ccc3c2oc2c1ccc1cc(=NCc3ccccc3B(O)O)ccc12 [Compound 53, naphthorhodamine bis-boronic acid]
Quenching of emission (PET) of the free boronic acid [6]: nearly completely quenched | Brightness ([6]; DMSO:buffer 1:1): 292^g | Em ([6]; DMSO:buffer 1:1): 700 nm | Ex ([6]; DMSO:buffer 1:1): 624 nm | Q.Y. ([6]; DMSO:buffer 1:1): 0.18 | ε ([6]; DMSO:buffer 1:1): 1616 M⁻¹ cm⁻¹ | Abs [6, 11]: 616 nm | Brightness ([6]; DMSO:buffer 1:9): 43^d,f | Em ([6]; DMSO:buffer 1:9): 692 nm | Ex ([6]; DMSO:buffer 1:9): 612 nm | Q.Y. ([6]; DMSO:buffer 1:9): 0.004 | ε ([6]; DMSO:buffer 1:9): 10759 M⁻¹ cm⁻¹ | Abs [6, 12]: 628 nm | Estimated quantum yield after binding ([8]; DMSO:buffer 1:9): 0.186 | Increase in absorbance at 630 nm ([8]; DMSO:buffer 1:9, highest concentration of fructose): less than 3 fold

Second part, led by results:

Red shift of absorption spectra from 3-1 transposition versus known regiochemistry ([1]; 90% aqueous 10% DMSO): 50 nm | Absorbance peak [1, 10]: 595 nm and 599 nm | Enhancement of the Stokes shift by 3-1 transposition [2]: about 70 nm | Longest wavelength emission ([2]; NaOH (pH 12), anion/phenoxide): 760 nm | Quantum yield ([3]; aqueous solution): less than 1%
SMILES: COC(=O)c1ccccc1-c1c2ccc(=O)cc-2oc2c1ccc1cccc(O)c12 [Compound 15h]

Red shift of absorption spectra from 3-1 transposition versus known regiochemistry ([1]; 90% aqueous 10% DMSO): 75-200 nm | Absorbance peak [1, 10]: 685 nm | Stokes shift [2]: unmeasurable | Red-shifted emission from 3-1 transposition versus known regiochemistry [2]: more than 160 nm | Longest wavelength emission ([2]; pH not stated): emission was not observed | Absorption maximum [4]: 701 nm | Bathochromic shift in the absorption spectrum versus known regiochemistry [4]: 103 nm | Bathochromic shift in the fluorescence emission versus known regiochemistry [4]: 128 nm | Emission maximum [4]: 816 nm | pH up to which NIR fluorescence was observed [5]: ≤ 9
SMILES: COC(=O)c1ccccc1-c1c2ccc3cccc(O)c3c2oc2c1ccc1cccc(=O)c12 [Compound 8]
Shift of the absorption maximum on deprotonation [5]: does not result in a large bathochromic shift

Quenching of emission (PET) of the free boronic acid [6]: slightly quenched | Brightness ([6]; DMSO:buffer 1:1): 8037 | Em ([6]; DMSO:buffer 1:1): 643 nm | Ex ([6]; DMSO:buffer 1:1): 580 nm | Q.Y. ([6]; DMSO:buffer 1:1): 0.35 | ε ([6]; DMSO:buffer 1:1): 23096 M⁻¹ cm⁻¹ | Abs [6, 11]: 579 nm | Brightness ([6]; DMSO:buffer 1:9): 3032^e | Em ([6]; DMSO:buffer 1:9): 638 nm | Ex ([6]; DMSO:buffer 1:9): 568 nm | Q.Y. ([6]; DMSO:buffer 1:9): 0.15 | ε ([6]; DMSO:buffer 1:9): 20326 M⁻¹ cm⁻¹ | Abs [6, 12]: 560 nm
SMILES: O=C(O)c1ccccc1-c1c2ccc(=NCc3ccccc3B(O)O)cc-2oc2c1ccc1cc(NCc3ccccc3B(O)O)ccc12 [Compound 51, seminaphthorhodamine bis-boronic acid]
Increase in absorbance [7]: approximately 1.5 fold | Increase in fluorescence [7]: approximately 1.5 fold

Em ([6]; DMSO:buffer 1:1): 526 nm | Ex ([6]; DMSO:buffer 1:1): 502 nm | ε ([6]; DMSO:buffer 1:1): 67905 M⁻¹ cm⁻¹ | Abs [6, 11]: 503 nm
SMILES: Cl.N=c1ccc2c(-c3ccccc3C(=O)O)c3ccc(N)cc3oc-2c1 [Rhodamine 110]
Abs [9]: 495 nm | Em [9]: 523 nm | Q.Y. [9]: 0.91 | Brightness ([9]; @ 492): 60788 @ 492 | ε ([9]; @ 492): 66800 M⁻¹ cm⁻¹
